Measured values taken from patent US20100311714A1, “1H-IMIDAZO[4,5-c]QUINOLINONE COMPOUNDS” (priority 2009, published 2010).

These compounds were tested on PKB Ser473 phosphorylation in Rat1-myr-HA-p110 alpha cells (assay: Reverse protein array, PKB Ser473 phosphorylation in Rat1-myr-HA-p110 alpha cells). Conditions: Rattus norvegicus, 0.5 h, 30 minutes compound incubation, read-out: p-PKB/IC50_alpha.
Format: cell-based

IC50 [nM]	Compound
33.9	COc1nc(N2CCNCC2)ccc1-n1c(=O)n(C)c2cnc3ccc(-c4cnc(N)c(C(F)(F)F)c4)cc3c21 [Example 9.2, 8-(6-Amino-5-trifluoromethyl-pyridin-3-yl)-1-(2-methoxy-6-piperazin-1-yl-pyridin-3-yl)-3-methyl-1,3-dihydro-imidazo[4,5-c]quinolin-2-one]
22.2	Cc1ncccc1-n1c(=O)n(C)c2cnc3ccc(-c4cncc(NC(C)C)c4)cc3c21 [Example 2.24, 8-(5-Isopropylamino-pyridin-3-yl)-3-methyl-1-(2-methyl-pyridin-3-yl)-1,3-dihydro-imidazo[4,5-c]quinolin-2-one]
7.3	CCNc1cc(-c2ccc3ncc4c(c3c2)n(-c2ccc(N3CCC3)nc2C)c(=O)n4C)cnc1CO [Example 23.8, 1-(6-Azetidin-1-yl-2-methyl-pyridin-3-yl)-8-(5-ethylamino-6-hydroxymethyl-pyridin-3-yl)-3-methyl-1,3-dihydro-imidazo[4,5-c]quinolin-2-one]
167	Cn1c(=O)n(-c2cccnc2)c2c3cc(-c4ccc(CO)nc4)ccc3ncc21 [Example 5.1, 8-(6-Hydroxymethyl-pyridin-3-yl)-3-methyl-1-pyridin-3-yl-1,3-dihydro-imidazo[4,5-c]quinolin-2-one]
< 4.57	Cc1nc(N(C)CCO)ccc1-n1c(=O)n(C)c2cnc3ccc(-c4cnc(N)c(C(F)(F)F)c4)cc3c21 [Example 26.1, 8-(6-Amino-5-trifluoromethyl-pyridin-3-yl)-1-{6-[(2-hydroxy-ethyl)-methyl-amino]-2-methyl-pyridin-3-yl}-3-methyl-1,3-dihydro-imidazo[4,5-c]quinolin-2-one]
< 4.57	CCNc1cc(-c2ccc3ncc4c(c3c2)n(-c2cccnc2C)c(=O)n4C)cnc1CO [Example 2.31, 8-(5-Ethylamino-6-hydroxymethyl-pyridin-3-yl)-3-methyl-1-(2-methyl-pyridin-3-yl)-1,3-dihydro-imidazo[4,5-c]quinolin-2-one]
29.8	COc1ccc(-c2ccc3ncc4c(c3c2)n(-c2cccnc2C)c(=O)n4C)cn1 [Example 2.12, 8-(6-Methoxy-pyridin-3-yl)-3-methyl-1-(2-methyl-pyridin-3-yl)-1,3-dihydro-imidazo[4,5-c]quinolin-2-one]
226	CNc1ncc(-c2ccc3ncc4c(c3c2)n(-c2ncccc2C)c(=O)n4C)cn1 [Example 3.4, 3-Methyl-8-(2-methylamino-pyrimidin-5-yl)-1-(3-methyl-pyridin-2-yl)-1,3-dihydro-imidazo[4,5-c]quinolin-2-one]
22.7	COC1CCN(c2ccc(-n3c(=O)n(C)c4cnc5ccc(-c6cncc(C(C)(C)O)c6)cc5c43)c(C)n2)C1 (stereo not shown) [Example 28.1, 8-[5-(1-Hydroxy-1-methyl-ethyl)-pyridin-3-yl]-1-[6-(3-methoxy-pyrrolidin-1-yl)-2-methyl-pyridin-3-yl]-3-methyl-1,3-dihydro-imidazo[4,5-c]quinolin-2-one]
72.4	Cc1ncccc1-n1c(=O)n(C)c2cnc3ccc(-c4cnc(N(C)C)nc4)cc3c21 [Example 2.15, 8-(2-Dimethylamino-pyrimidin-5-yl)-3-methyl-1-(2-methyl-pyridin-3-yl)-1,3-dihydro-imidazo[4,5-c]quinolin-2-one]
92.7	CNC(=O)c1ccc(-c2ccc3ncc4c(c3c2)n(-c2ncccc2C)c(=O)n4C)cc1 [Example 3.5, N-Methyl-4-[3-methyl-1-(3-methyl-pyridin-2-yl)-2-oxo-2,3-dihydro-1H-imidazo[4,5-c]quinolin-8-yl]-benzamide]
5.7	CNc1ccc(-c2ccc3ncc4c(c3c2)n(-c2ccc(N3CCC3)nc2C)c(=O)n4C)cn1 [Example 23.4, 1-(6-Azetidin-1-yl-2-methyl-pyridin-3-yl)-3-methyl-8-(6-methylamino-pyridin-3-yl)-1,3-dihydro-imidazo[4,5-c]quinolin-2-one]
6.56	COc1ncccc1-n1c(=O)n(C)c2cnc3ccc(-c4ccc(C(N)=O)cc4)cc3c21 [Example 1.6, 4-[1-(2-Methoxy-pyridin-3-yl)-3-methyl-2-oxo-2,3-dihydro-1H-imidazo[4,5-c]quinolin-8-yl]-benzamide]
15.3	CNc1ncc(-c2ccc3ncc4c(c3c2)n(-c2ccc(N3CC(F)(F)C3)nc2C)c(=O)n4C)cn1 [Example 24.1, 1-[6-(3,3-Difluoro-azetidin-1-yl)-2-methyl-pyridin-3-yl]-3-methyl-8-(2-methylamino-pyrimidin-5-yl)-1,3-dihydro-imidazo[4,5-c]quinolin-2-one]
178	Cc1cccnc1-n1c(=O)n(C)c2cnc3ccc(-c4ccc(C(N)=O)cc4)cc3c21 [Example 3.3, 4-[3-Methyl-1-(3-methyl-pyridin-2-yl)-2-oxo-2,3-dihydro-1H-imidazo[4,5-c]quinolin-8-yl]-benzamide]
37.3	CCOc1cc(-c2ccc3ncc4c(c3c2)n(-c2ccc(N3CCC3)nc2C)c(=O)n4C)cnc1COC [Example 23.5, 1-(6-Azetidin-1-yl-2-methyl-pyridin-3-yl)-8-(5-ethoxy-6-methoxymethyl-pyridin-3-yl)-3-methyl-1,3-dihydro-imidazo[4,5-c]quinolin-2-one]
45	COc1ncc(-c2ccc3ncc4c(c3c2)n(-c2ccc(N3CC[C@H](O)C3)nc2C)c(=O)n4C)c(OC)n1 [Example 32.3, 8-(2,4-Dimethoxy-pyrimidin-5-yl)-1-[6-((S)-3-hydroxy-pyrrolidin-1-yl)-2-methyl-pyridin-3-yl]-3-methyl-1,3-dihydro-imidazo[4,5-c]quinolin-2-one]
11.8	Cc1nc(F)ccc1-n1c(=O)n(C)c2cnc3ccc(-c4cnc(N)c(C(F)(F)F)c4)cc3c21 [Example 7.1, 8-(6-Amino-5-trifluoromethyl-pyridin-3-yl)-1-(6-fluoro-2-methyl-pyridin-3-yl)-3-methyl-1,3-dihydro-imidazo[4,5-c]quinolin-2-one]
5.7	Cc1nc(N2CCC2)ccc1-n1c(=O)n(C)c2cnc3ccc(-c4cncc(C(C)(C)O)c4)cc3c21 [Example 23.3, 1-(6-Azetidin-1-yl-2-methyl-pyridin-3-yl)-8-[5-(1-hydroxy-1-methyl-ethyl)-pyridin-3-yl]-3-methyl-1,3-dihydro-imidazo[4,5-c]quinolin-2-one]
6.4	CNc1cncc(-c2ccc3ncc4c(c3c2)n(-c2cccnc2C)c(=O)n4C)c1 [Example 2.26, 3-Methyl-8-(5-methylamino-pyridin-3-yl)-1-(2-methyl-pyridin-3-yl)-1,3-dihydro-imidazo[4,5-c]quinolin-2-one]
114	Cc1ncccc1-n1c(=O)n(C)c2cnc3ccc(-c4ccc(OCCCN(C)C)nc4)cc3c21 [Example 2.10, 8-[6-(3-Dimethylamino-propoxy)-pyridin-3-yl]-3-methyl-1-(2-methyl-pyridin-3-yl)-1,3-dihydro-imidazo[4,5-c]quinolin-2-one]
100	COc1cc(-c2ccc3ncc4c(c3c2)n(-c2cccnc2C)c(=O)n4C)cnc1C(OC)OC [Example 2.27, 8-(6-Dimethoxymethyl-5-methoxy-pyridin-3-yl)-3-methyl-1-(2-methyl-pyridin-3-yl)-1,3-dihydro-imidazo[4,5-c]quinolin-2-one]
